Test results from ChEMBL document CHEMBL1201862, “PubChem BioAssay data set” (2004).
Active and inactive are the calls of the source.

Tests used:
[1] = inhibitors of PGC1a acetylation in cells, dose response, cell-based, cherry-picked samples (AID 720514); format: functional;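 also: potency may reflect raised or lowered acetylation signal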
[2] = Luminescence-based cell-based high throughput dose response assay to identify activators of the DAF-12 from the parasite S. stercoralis (ssDAF-12).; format: functional
[3] = molecular target: T1, Oxysterols receptor LXR-beta (Homo sapiens, UniProt P55055); assay: LXR agonists, Gal4 luciferase reporter, dose response, counter-screen for ssDAF-12 agonist project, cell-based, luminescence, HEK293, S. stercoralis campaign (AID 720737); format: functional; settings: read-out: IC50 (the source's name)
T1 sequence (P55055 whole entry): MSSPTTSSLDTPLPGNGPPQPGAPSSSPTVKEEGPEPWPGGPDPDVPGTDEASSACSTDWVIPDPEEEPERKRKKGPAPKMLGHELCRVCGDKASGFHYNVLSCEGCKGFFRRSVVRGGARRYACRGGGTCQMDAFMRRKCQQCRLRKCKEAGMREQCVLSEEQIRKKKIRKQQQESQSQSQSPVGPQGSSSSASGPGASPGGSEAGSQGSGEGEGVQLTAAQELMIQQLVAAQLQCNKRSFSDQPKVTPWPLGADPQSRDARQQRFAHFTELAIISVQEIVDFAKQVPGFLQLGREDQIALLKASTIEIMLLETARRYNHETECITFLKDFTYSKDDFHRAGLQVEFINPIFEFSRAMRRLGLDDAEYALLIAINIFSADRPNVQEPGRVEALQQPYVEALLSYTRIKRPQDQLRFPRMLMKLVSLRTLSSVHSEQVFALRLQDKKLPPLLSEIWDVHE

[4] = cytotoxicity toward HCT116 cells – cell-based, CellTiter-Glo luminescence, IC50, dose response (AID 1117332); format: functional; settings: HCT-116
[5] = cytotoxicity toward HT-29 cells – cell-based, CellTiter-Glo luminescence, IC50, dose response (AID 1117330); format: functional
[6] = CellTiter-Glo luminescent dose response of DLD-1 viability loss (AID 1117352); format: functional
[7] = RKO cell viability reduction, dose response, CellTiter-Glo luminescence (AID 1117322); format: functional
[8] = half-maximal inhibitory concentration for glucagon-like peptide-1 release, STC-1 cell line, dose-response (AID 1117345); format: functional, cell-based
[9] = HCT116 cell viability decrease, GSK3B pretreatment – CellTiter-Glo, IC50, dose response (AID 1117339); format: functional; settings: HCT-116
[10] = HeLa 2N DNA content increase, dose response, cell-based, IC50 (AID 1117349); format: functional
[11] = cytotoxicity toward Colo320 cells – cell-based, CellTiter-Glo luminescence, IC50, dose response (AID 1117334); format: functional; settings: COLO 320
[12] = HeLa 4N DNA content increase, dose response, cell-based, IC50 (AID 1117351); format: functional
[13] = Concentration-dependent survival of SW480 colon cancer line, luminescence detection with CellTiter-Glo, half-maximal inhibitory concentration (AID 1117338); format: functional
[14] = Glucagon-like peptide 1 release potency, NCI-H716 cell line, dose-response, half-maximal inhibitory concentration (AID 1117344); format: functional, cell-based
[15] = SNU-C1 cell viability reduction, dose response, CellTiter-Glo luminescence (AID 1117323); format: functional, cell-based
Vasopressin V2 receptor = Vasopressin V2 receptor (Homo sapiens, UniProt P30518); assay: Late-stage results from the probe development effort to identify antagonists of arginine vasopressin receptor 1a (AVPR1a): fluorescence-based cell-based dose response AVPR2 inhibition counterscreen assay.; format: functional
[16] = Late-stage results from the probe development effort to identify antagonists of arginine vasopressin receptor 1a (AVPR1a): fluorescence-based cell-based dose response OXTR inhibition counterscreen assay.; format: functional
Vasopressin V1b receptor = Vasopressin V1b receptor (Homo sapiens, UniProt P47901); assay: Late-stage results from the probe development effort to identify antagonists of arginine vasopressin receptor 1a (AVPR1a): fluorescence-based cell-based dose response AVPR1b inhibition counterscreen assay.; format: functional
[17] = Late-stage results from the probe development effort to identify antagonists of arginine vasopressin receptor 1a (AVPR1a): fluorescence-based cell-based dose response AVPR1a inhibition assay.; format: functional
[18] = HEp-2 cell cytotoxicity, dose response, cytotoxicity control for RSV inhibitor project, HTS (AID 2410); format: functional; settings: human respiratory syncytial virus
Vero [19] = assay: cells; format: functional; settings: Chlorocebus sabaeus
Vero [20] = assay: host cell cytotoxicity of antiviral hits, dose response, cytotoxicity control for West Nile virus antiviral project, secondary assay (AID 1650); format: functional; settings: Chlorocebus sabaeus
[21] = THP-1 cell cytotoxicity, dose response, cytotoxicity control for Vif-APOBEC3G degradation inhibitor project, THP-1 cells (AID 1117359); format: functional; settings: Human immunodeficiency virus 1, THP-1
[22] = molecular target: G-protein coupled receptor 183 (Homo sapiens, UniProt P32249); assay: SAR confirmation of small molecule antagonists of the EBI2 receptor via a luminescent beta-arrestin assa.; format: functional
[23] = Orthopox viral replication plaque formation Measured in Cell-Based and Microorganism Combination System Using Imaging - 2142-05_Inhibitor_Dose_DryPowder_Activity.; format: functional

G-protein coupled receptor 183, sequence (P32249 whole entry): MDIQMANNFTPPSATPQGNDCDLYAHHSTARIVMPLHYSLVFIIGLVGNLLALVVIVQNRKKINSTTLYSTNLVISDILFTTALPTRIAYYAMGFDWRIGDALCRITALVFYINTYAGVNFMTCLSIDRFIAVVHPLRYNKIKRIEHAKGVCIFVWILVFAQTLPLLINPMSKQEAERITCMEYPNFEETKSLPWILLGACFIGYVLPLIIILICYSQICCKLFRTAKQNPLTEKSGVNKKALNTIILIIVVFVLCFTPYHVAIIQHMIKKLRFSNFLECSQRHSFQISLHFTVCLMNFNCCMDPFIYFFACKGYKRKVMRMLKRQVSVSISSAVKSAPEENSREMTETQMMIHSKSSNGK
Vasopressin V1b receptor, sequence (P47901 whole entry): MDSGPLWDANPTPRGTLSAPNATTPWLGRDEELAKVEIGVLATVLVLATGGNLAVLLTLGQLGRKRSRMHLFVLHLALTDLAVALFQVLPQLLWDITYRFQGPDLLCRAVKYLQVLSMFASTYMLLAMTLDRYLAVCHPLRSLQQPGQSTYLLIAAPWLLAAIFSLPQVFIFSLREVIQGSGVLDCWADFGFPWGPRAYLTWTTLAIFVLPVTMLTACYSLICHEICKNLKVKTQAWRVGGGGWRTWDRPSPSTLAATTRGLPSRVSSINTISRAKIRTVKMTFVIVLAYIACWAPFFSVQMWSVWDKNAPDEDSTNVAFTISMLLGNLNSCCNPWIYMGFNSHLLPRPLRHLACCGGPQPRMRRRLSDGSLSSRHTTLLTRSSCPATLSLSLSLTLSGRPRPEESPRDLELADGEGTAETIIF
Vasopressin V2 receptor, sequence (P30518 whole entry): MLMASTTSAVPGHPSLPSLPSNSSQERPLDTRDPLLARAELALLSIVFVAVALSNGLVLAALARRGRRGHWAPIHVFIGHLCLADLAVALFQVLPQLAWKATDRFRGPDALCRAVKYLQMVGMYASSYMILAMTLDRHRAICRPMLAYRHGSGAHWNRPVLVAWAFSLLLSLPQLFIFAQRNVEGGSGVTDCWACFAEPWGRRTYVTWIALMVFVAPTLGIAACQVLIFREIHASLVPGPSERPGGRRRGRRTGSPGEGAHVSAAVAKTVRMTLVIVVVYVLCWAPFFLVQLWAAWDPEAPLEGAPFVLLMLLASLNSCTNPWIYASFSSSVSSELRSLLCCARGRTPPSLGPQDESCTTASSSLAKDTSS

## N#Cc1c(N)c(C(=O)c2ccccc2)n2ccccc12
[1]
  AC50: 25.7 µM (active)

## COc1ccc(C(=O)c2ccccc2)cc1
[2]
  IC50: > 67.6 µM (inactive)
[3]
  EC50: > 67.6 µM (inactive)

## Oc1ccc([C@H]2CNCc3c2ccc(O)c3O)cc1O
[4]
  IC50: > 20 µM (inactive)
[5]
  IC50: > 20 µM (inactive)
[6]
  IC50: > 20 µM (inactive)
[7]
  IC50: 0.0332 µM (active)
[8]
  IC50: > 20 µM (inactive)
[9]
  IC50: 0.188 µM (active)
[10]
  IC50: > 10 µM (inactive)
[11]
  IC50: 0.466 µM (active)
[12]
  IC50: > 10 µM (inactive)
[13]
  IC50: > 20 µM (inactive)
[14]
  IC50: 5.95 µM (inactive)
[15]
  IC50: > 20 µM (inactive)

## COc1ccc(N(CC2CC2)C(=O)N2CCN(c3ccccc3C)CC2)cc1
Vasopressin V2 receptor
  IC50: 3.51 µM (active)
[16]
  IC50: 0.051 µM (active)
Vasopressin V1b receptor
  IC50: 5.8 µM (active)
[17]
  IC50: 0.0038 µM (active)

## COc1ccc(C(=O)N/N=C/C23CC[C@@H](O)CC2(O)CC[C@@H]2[C@@H]3CCC3(C)C(C4=CC(=O)OC4)CCC23O)cc1 (stereo not given in full)
[18]
  CC50: 12.5 µM (active)
Vero [19]
  CC50: 22.1 µM (active)
Vero [20]
  CC50: 43.5 µM (active)
[21]
  CC50: 10.4 µM (active)

## O=C(/C=C/c1ccc(Br)cc1)N1CCN(C(=O)C2CCCC2)CC1
[22]
  IC50: 0.00441 µM (active)

## C[C@@H](O)C#Cc1ccc2c(c1)O[C@@H](CN(C)S(=O)(=O)c1ccc(-c3ccccc3)cc1)[C@@H](C)CN([C@@H](C)CO)S2(=O)=O
[23]
  AC50: 12.3 µM (active)
